The values below come from patent US20060224077A1, “Analysis of a skin reactivity and hypersensitivity” (priority 2002, published 2006).

The experiment relates to maxillary nerve (V2, sensory). Kind of experiment: Action potential of the maxillary nerve in response to electrical stimulation at face level, recorded non-invasively in vivo. Details: species or system human. To be noted: cream containing 0.75% capsaicin, 2 mg/cm^2 on a 2×4 mm skin zone immediately above the upper lip; 5 minutes after application; versus before application. The text has this:
The process according to the invention which uses the electrogenesis of the nerves and/or the brain is characterized in that: • two non-invasive electrodes (1,1′) are applied, at least one of the two electrodes being applied to a specific point of the zone of the skin to be analyzed, the measuring point, in order to detect the electrical activity of the nerves of the skin and/or the subcutaneous nerves at that point or even the electrical activity of the brain. These electrodes are associated with a circuit for evaluating the signals detected by the electrodes, this evaluation circuit comprising amplifying elements (2, 2′, 3), processing elements (7) and recording elements for the signals and also a microprocessor (8), • the skin zone to be analyzed is exposed to a stimulation, more particularly an electrical stimulation, and • the changes in the electrical signals detected by the electrodes driven by the stimulation as a function of time are analyzed over a certain period. […]
FIG. 8 compares the variations in the action potential of the maxillary nerve (V2, sensory) in response to an electrical stimulation at face level before and immediately after the topical application of xylocaine (5%). […] A cream containing 0.75% capsaicin was used for this purpose and was applied in a quantity of 2 mg/cm^2 to a 2×4 mm skin zone immediately above the upper lip. […]

SMILES strings stand for the structures.

As to `COc1cc(CNC(=O)CCCC/C=C/C(C)C)ccc1O` [capsaicin], the “increase of the amplitude of the nerve potential after application” value worked out at 75%.
